# Source: patent US6300350A, “Treatment of emphysema using RARy selective retinoid agonists” (priority 2000, dated 2001)
# Key:
# [1] = tested on: elastase-induced emphysema; assay: Alveolar repair in rat model of elastase-induced emphysema, intraperitoneal; assay type: in vivo, male Sprague Dawley rats; set-up: Alveolar Area: unit not given here; conditions: for % Repair / Alveolar Area: 0.5 mg/kg ip once daily, from 21 days post injury, 14 days; for Alveolar Area: naive 1637 +/- 153, elastase + vehicle 3570 +/- 319; for alveolar repair (in words): elastase-treated rats, 0.5 mg/kg ip; for light micrographs of lung sections (in words): rat lung damaged by elastase and then treated, compared to normal rat lung
# Protocol: Animals were divided into treatment groups of approximately eight. […] Three weeks post injury ATRA or a RAR selective agonist was dissolved in DMSO (20 mg/ml) and stored at -20 C. Fresh working stocks were prepared fresh daily by dilution in corn oil to a final concentration of 2 mg/ml. […] Control groups were challenged with elastase and 21 days later treated with Vehicle (DMSO/PBS) for 14 days. Animals were sacrificed 24 hours after the last dose of by exsanguination under deep anesthesia. Blood was collected at time of exanguination for analysis of changes in blood chemistry from respective treatments. The lungs were inflated with 10% neutral buffered formalin by intratracheal instillation at a constant rate (1 ml/gram body mass/min). The lung was excised and immersed in fixative for 24 hours prior to processing. Standard methods were used to prepare 5 um paraffin sections. Sections were stained with Hematoxylin and Eosin (H%E). Computerized Morphometric analysis was performed to determine the average alveolar size and alveolar number.
# [2] = target: T1, RARα (Homo sapiens, UniProt P10276); assay: Transactivation, RARα; assay type: cell-based
# T1 sequence (P10276 1-462): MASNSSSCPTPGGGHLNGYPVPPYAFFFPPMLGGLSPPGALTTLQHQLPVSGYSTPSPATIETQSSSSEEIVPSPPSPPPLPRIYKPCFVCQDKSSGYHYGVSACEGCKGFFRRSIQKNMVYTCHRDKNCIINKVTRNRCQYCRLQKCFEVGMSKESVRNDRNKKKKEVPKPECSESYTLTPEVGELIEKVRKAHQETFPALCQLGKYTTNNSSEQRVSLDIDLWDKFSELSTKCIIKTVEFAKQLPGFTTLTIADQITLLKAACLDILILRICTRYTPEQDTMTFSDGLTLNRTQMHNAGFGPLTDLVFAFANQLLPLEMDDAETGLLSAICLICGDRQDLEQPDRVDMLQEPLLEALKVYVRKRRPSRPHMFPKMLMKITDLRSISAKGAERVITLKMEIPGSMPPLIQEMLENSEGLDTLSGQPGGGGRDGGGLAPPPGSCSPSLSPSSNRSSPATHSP
# Source text: (§1) As used herein, the term "transactivation" refers to the ability of a retinoid to activate the transcription of a gene where the gene transcription is initiated by the binding of a ligand to the particular retinoic acid receptor being tested, i.e., RARα, RARβ, or RARγ. Determining the ability of a compound to transactivate a retinoic acid receptor may be performed by methods known to those of skill in the art. […] Apfel etal., Proc. Nat.
# [3] = target: T1, RARα; assay: Binding, RARα (ligand binding assay)
# Source text: (§2) The RARγ agonist selectivity of a compound can be determined by routine ligand binding assays known to one of skill in the art such as described in C. Apfel et al., Proc. Nat.
# [4] = target: T2, RARβ (Homo sapiens, UniProt P10826); assay: Transactivation, RARβ; assay type: cell-based
# T2 sequence (P10826 1-455): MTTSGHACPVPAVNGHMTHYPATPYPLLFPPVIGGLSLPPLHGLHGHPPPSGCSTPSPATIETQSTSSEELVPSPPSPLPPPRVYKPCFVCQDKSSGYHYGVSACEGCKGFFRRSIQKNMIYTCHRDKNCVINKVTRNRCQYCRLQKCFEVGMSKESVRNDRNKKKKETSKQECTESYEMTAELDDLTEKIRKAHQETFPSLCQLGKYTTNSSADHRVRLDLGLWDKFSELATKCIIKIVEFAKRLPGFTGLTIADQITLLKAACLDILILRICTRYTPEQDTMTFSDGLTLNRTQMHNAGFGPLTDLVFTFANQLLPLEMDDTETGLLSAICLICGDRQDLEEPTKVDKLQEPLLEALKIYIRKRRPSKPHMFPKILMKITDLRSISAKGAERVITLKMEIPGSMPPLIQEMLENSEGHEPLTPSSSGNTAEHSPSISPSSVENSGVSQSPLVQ
# Source text: as §1
# [5] = target: T2, RARβ; assay: Binding, RARβ (ligand binding assay)
# Source text: as §2
# [6] = target: T3, RARγ (Homo sapiens, UniProt P13631); assay: Binding, RARγ (ligand binding assay)
# T3 sequence (P13631 1-454): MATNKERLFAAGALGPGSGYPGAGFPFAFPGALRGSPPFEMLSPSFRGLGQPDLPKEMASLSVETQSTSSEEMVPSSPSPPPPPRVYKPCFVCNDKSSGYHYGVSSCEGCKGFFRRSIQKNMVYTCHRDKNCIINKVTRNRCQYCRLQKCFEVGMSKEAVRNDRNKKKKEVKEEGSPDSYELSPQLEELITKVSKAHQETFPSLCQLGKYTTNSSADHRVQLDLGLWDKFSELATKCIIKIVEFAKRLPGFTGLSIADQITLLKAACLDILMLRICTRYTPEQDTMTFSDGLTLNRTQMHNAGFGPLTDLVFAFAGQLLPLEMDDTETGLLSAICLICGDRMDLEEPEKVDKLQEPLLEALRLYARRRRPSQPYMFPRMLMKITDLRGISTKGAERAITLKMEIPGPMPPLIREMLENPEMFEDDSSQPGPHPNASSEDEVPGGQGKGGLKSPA
# Source text: as §2
# [7] = tested on: tropoelastin gene; assay: RAR transactivation of steady state tropoelastin gene in normal human lung fibroblasts (CCD-16Lu); assay type: cell-based; conditions: for Tropo-elastin Expression: CCD-16Lu, 1×10^-7 M, RT-PCR, triplicate, untreated control 30.90; for tropoelastin gene induction (in words): human lung fibroblasts, compared to the control
# Protocol: Transactivation of the tropoelastin gene in normal human lung fibroblasts (CCD-16Lu) was performed as described below. Cells were grown to confluence at which time fresh media +/- ATRA or selective retiniod was added to the basal culture. ATRA and/or selective retiniods were used at a concentration of 1×10^-7 M. The cell layer was lysed using a guanidinium-based buffer (TRIZOL/Sigma) for RNA extraction and analysis. Amplification of tropoelastin and GAPDH RNA was performed by standard quantitative RT-PCR (TAQMAN, Perken/Elmer) using appropriate selective primers. Tropo-elastin gene expression was normalized to the expression of standard house-keeping gene (GAPDH).
# Samples were run in triplicate.
# [8] = target: T3, RARγ; assay: Transactivation, RARγ; assay type: cell-based
# Source text: as §1
# [9] = tested on: experimental emphysema; assay: Alveolar repair in rat experimental emphysema, oral dosing; assay type: in vivo, rats; conditions: 1 mg/kg/PO daily for two weeks
# Protocol: Three (3) weeks post injury animals were treated with vehicle (Capmul solution) or retinoids prepared in Capmul and dosed orally at 1, 3, and 10 mg/kg body weight. Animals were treated for 14 days prior to termination of study.
# Dosage was at 1 mg/kg/PO daily for two weeks.
# [10] = Plasma triglyceride levels in rats; assay type: in vivo
# Protocol: Experimental emphysema was induced in rats as described in Example 2. Three (3) weeks post injury animals were treated with vehicle (Capmul solution) or retinoids prepared in Capmul and dosed orally at 1, 3, and 10 mg/kg body weight. Animals were treated for 14 days prior to termination of study. Lung harvest and blood collection was performed as described in Example 2.
# Quantitation of triglycerides contained in rat plasma was performed after using established procedures in a contact clinical laboratory facility. Briefly, plasma triglycerides were converted to dihdroxyacetone and H2 O2, by sequential treatment of plasma with lipase and glycerokinase according directions described by manufacturer of triglycerides/GPO kit (Boehringer Mannheim #1488872). H2 02 was quantitated calorimetrically in a Hitachi 911 Chemistry Analyzer. In rats normal triglyceride levels are 75-175 mg/dl.
# Dosage was at 1 mg/kg/PO daily for two weeks. […] Therefore, it appears that RARα selective activity is linked to elevated triglyceride levels.
# [11] = tested on: alveolar septation; conditions: postnatal administration; newborn rats; cited from earlier work
# [12] = plasma, 1 mg/kg/PO daily for two weeks
# [13] = plasma, 1 mg/kg/PO daily for two weeks, normal rat 75-175 mg/dl
SMILES,% Repair [1],Alveolar Area [1],alveolar repair (in words) [1],IC50 ([6]; Table III),EC50 ([8]; Table III),% Repair [9],"triglyceride levels (in words) [10, 12]","[Triglyceride] [10, 13]",EC50 ([4]; Table III),IC50 ([5]; Table III),also measured
CC1(C)CCC(C)(C)c2cc(C(=O)Nc3ccc(C(=O)O)cc3)ccc21 [RAR Agonist 9],< 20%,3323 +/- 406,do not induce alveolar repair,,,,,,,,
"CC(C)COc1ccc(-c2ccc3cc(C(=O)O)ccc3c2)cc1C(C)(C)C [RAR Agonist 2, reference compound]",< 20%,3653 +/- 550,do not induce alveolar repair,300 nM,160 nM,,,,,,EC50 ([2]; Table II): 2000 nM; IC50 ([3]; Table II): 1000 nM; EC50 ([4]; Table II): 39 nM; IC50 ([5]; Table II): 28 nM; IC50 ([6]; Table II): 300 nM; Tropo-elastin Expression [7]: 1.85 (Elastin/GAPDH) × 10^5; tropoelastin gene induction (in words) [7]: did not induce the tropoelastin gene; EC50 ([8]; Table II): 160 nM; light micrographs of lung sections (in words) [1]: did not reverse the change caused by elastase treatment
"CC1=C(/C=C/C(C)=C/C=C/C(C)=C\C(=O)O)C(C)(C)CCC1 [RAR Agonist 8, reference compound]",,,,,,57.1%,either on the high end of normal or elevated,178 mg/dL,,,
"O=C(O)c1ccc(NC(=O)c2cc(C(F)(F)F)cc(C(F)(F)F)c2)cc1 [RAR Agonist 1, reference compound]",< 20%,3058 +/- 160,do not induce alveolar repair,10000 nM,10000 nM,,,,,,EC50 ([2]; Table II): 16.5 nM; IC50 ([3]; Table II): 300 nM; EC50 ([4]; Table II): 10000 nM; IC50 ([5]; Table II): 10000 nM; IC50 ([6]; Table II): 10000 nM; Tropo-elastin Expression [7]: 13.93 (Elastin/GAPDH) × 10^5; tropoelastin gene induction (in words) [7]: did not induce the tropoelastin gene; EC50 ([8]; Table II): 10000 nM; light micrographs of lung sections (in words) [1]: did not reverse the change caused by elastase treatment
CC1(C)CCOc2ccc(C(=O)/C=C/c3ccc(C(=O)O)cc3)cc21 [RAR Agonist 6],> 70%,1909 +/- 207,markedly induce alveolar repair,2410 nM,15 nM,39%,do not cause elevation in the triglyceride levels,140 mg/dL,16 nM,2100 nM,EC50 ([2]; Table III): 10000 nM; IC50 ([3]; Table III): 3100 nM
CCCCCC(=O)c1cc2c(cc1/C=C/c1ccc(C(=O)O)cc1)C(C)(C)CCC2(C)C [RAR Agonist 5],56%,2502 +/- 243,markedly induce alveolar repair,770 nM,104 nM,40%,do not cause elevation in the triglyceride levels,119 mg/dL,10000 nM,5400 nM,EC50 ([2]; Table III): 10000 nM; IC50 ([3]; Table III): 2300 nM
O=C(O)c1ccc2cc(-c3ccc(O)c(C45CC6CC(CC(C6)C4)C5)c3)ccc2c1 [RAR Agonist 7],> 70%,1817 +/- 241,markedly induce alveolar repair,,,66%,,,2300 nM,4600 nM,"[Triglyceride] ([10]; rat, in vivo, po, 1 mg/kg): 114 mg/dL; triglyceride levels (in words) ([10]; rat, in vivo, po, 1 mg/kg): do not cause elevation in the triglyceride levels"
"CC1=C(/C=C/C(C)=C\C=C\C(C)=C\C(=O)O)C(C)(C)CCC1 [RAR Agonist 10, reference compound]",,,,,,58.3%,either on the high end of normal or elevated,273 mg/dL,,,
CC1=C(/C=C/C(C)=C/C=C/C(C)=C/C(=O)O)C(C)(C)CCC1 [retinoic acid],,,,,,,,,,,number of alveoli / septation in lungs (in words) [11]: increases the number of alveoli in rats
